Experimental data taken from patent US9035133B2, “Herbicide-resistant sunflower plants and methods of use” (priority 2006, dated 2015).

Assays:
Type in all cases: in vivo, Helianthus annuus
[1] = tested on: sunflower Entry 8, MUT31 Restorer, MUT31 homo; assay: Field trial, phytotoxicity rating (% crop injury); conditions: 21 DAT
Experimental: (§1) A field trial was conducted to compare the herbicide tolerance of sunflower hybrids carrying the MUT31 trait and the A205V mutation in a sunflower AHASL gene (A205V/A205V). A sunflower AHASL gene with the A205V mutation encodes a AHASL protein which has a valine at amino acid that corresponds to amino acid position 205 in the Arabidopsis thaliana AHASL protein. The amino acid at the same position in a wild-type sunflower AHASL protein is alanine. In the amino acid sequence of the sunflower AHASL protein, this alanine-to-valine amino acid substitution is at amino acid position 190. By convention, the sites of amino acid substitutions that are known to give rise to herbicide resistance in plant AHASL proteins are typically referred to by the position of the substitution in the amino acid sequence of the Arabidopsis AHASL protein.
(§2) Seed from each entry was produced under optimum seed production conditions in South America in 2005/2006. The field trial was conducted at one location in North Dakota, USA in 2006. The entries were organized in a randomized complete block using a split plot design consisting of 3 replications for each treatment combination. Factor A was the herbicide treatment, and factor B was the sunflower entry. The plot size was 4 rows×12 ft and the seeding rate was consistent with local agronomic practices. The spray volume was 10 gallons per acre (GPA) (or 100 liters/ha) for a backpack sprayer or 20 GPA (or 200 liters/ha) for a tractor mounted boom. The herbicide treatments were applied at the 2-4 leaf growth stage.
(§3) Phytotoxicity ratings were assessed at 7 days and 21 days following herbicide application. Phytotoxicity was recorded as the amount of plant damage (in percent), where a rating of ‘0’ indicated no damage to the plants in the plot relative to the untreated plot. A rating of ‘100’ indicated complete necrosis (death) of the plants in the plot relative to the untreated plot.
(§4) The data was subjected to an ANOVA analysis and the means from the 3 repetitions are presented in Table 8 (phytotoxicity at 21 days post-treatment).

[2] = tested on: sunflower Entry 1, IMI Restorer, A205V homo; assay: Field trial, phytotoxicity rating (% crop injury); conditions: 21 DAT
Experimental: as §1, §2, §3, §4

[3] = tested on: sunflower Entry 6, IMI cms × MUT31 restorer, A205V/MUT31 hetero; assay: Field trial, phytotoxicity rating (% crop injury); conditions: 21 DAT
Experimental: as §1, §2, §3, §4

[4] = tested on: sunflower Entry 5, A837 cms × IMI restorer, A205V hetero; assay: Field trial, phytotoxicity rating (% crop injury); conditions: 50 g ai/ha imazamox + 0.25% (v/v) NIS, 21 DAT
Experimental: as §1, §2, §3, §4

[5] = tested on: sunflower Entry 3, WT × IMI restorer, A205V hetero; assay: Field trial, phytotoxicity rating (% crop injury); conditions: 50 g ai/ha imazamox + 0.25% (v/v) NIS, 21 DAT
Experimental: as §1, §2, §3, §4

[6] = tested on: sunflower Entry 2, IMI cms × IMI restorer, A205V homo; assay: Field trial, phytotoxicity rating (% crop injury); conditions: 21 DAT
Experimental: as §1, §2, §3, §4

[7] = tested on: MUT31; assay: Previous studies (data not shown), crop injury
[8] = tested on: RHA266 sunflower plants; assay: Greenhouse factorial experiment, herbicide damage score (imazamox with or without malathion); conditions: 7 days after spraying
Experimental: (§5) FIG. 1 is a graphical representation of the results of a 2×3×2 factorial experiment to the test the effects of sunflower genotype (RHA266 or MUT31), herbicide dose (0, 0.25X, and, 0.50X; where X=50 g a.i./ha imazamox), and malathion (0 or 1000 g a.i./ha). The sunflower plants were at the 3-4 leaf growth stage at time of malathion and herbicide spraying. Malathion was sprayed on the plants 30 minutes prior to the imazamox spraying. The sunflower plants were evaluated at 7 days after herbicide spraying to determine damage scores. Additional details are provided below in Example 3.
(§6) To evaluate the detoxification ability of MUT31 sunflower plants, an experiment was conducted in the greenhouse. The objective of the experiment was to determine if the imazamox tolerance of MUT31 plants is associated with detoxification mechanism that is mediated by a P450 monooxygenase enzyme (referred to herein as “P450 enzyme”). […] Thus, plants comprising enhanced herbicide tolerance that is due to an altered P450 enzyme are expected to become less tolerant or susceptible to the herbicide when malthion is applied to the plants before they are treated with the herbicide.
(§7) A factorial experiment with three factors: genotypes (MUT31 and RHA266), herbicide dose (Control, 0.25X , and 0.50X; where X=50 g ai/ha imazamox) and malathion (with or without malathion) was arranged in a randomized split-split plot block design. Imazamox (SWEEPER) was sprayed at the 3-4 leaf growth stage. The P450 inhibitor malathion was sprayed at a rate of 1000 g ai/ha 30 minutes prior to herbicide spraying.

[9] = tested on: MUT31 sunflower plants; assay: as above; conditions: 7 days after spraying
Experimental: as §5, §6, §7

[10] = 100 g ai/ha imazamox + 0.25% (v/v) NIS
[11] = 0.25× imazamox (X=50 g ai/ha), malathion 1000 g ai/ha 30 minutes prior
[12] = 0.25× imazamox (X=50 g ai/ha), no malathion
[13] = 0.50× imazamox (X=50 g ai/ha), malathion 1000 g ai/ha 30 minutes prior
[14] = 0.50× imazamox (X=50 g ai/ha), no malathion
[15] = 160 g ai/ha imazapyr + 0.25% (v/v) NIS
[16] = herbicide dose 0× (control), malathion 1000 g ai/ha alone
[17] = herbicide dose 0× (control), malathion 1000 g ai/ha alone, listed as Malathion

Question: What does the source list for `COCc1cnc(C2=NC(C)(C(C)C)C(=O)N2)c(C(=O)O)c1` (stereo not drawn) [imazamox]?
Answer: Phytotoxicity Rating (% Crop Injury) ([1]; 37.5 g ai/ha imazamox + 0.25% (v/v) NIS): 47%; Phytotoxicity Rating (% Crop Injury) [2, 10]: 6.67%; Phytotoxicity Rating (% Crop Injury) ([3]; 50 g ai/ha imazamox + 0.25% (v/v) NIS): 1.67%; Phytotoxicity Rating (% Crop Injury) ([3]; 200 g ai/ha imazamox + 0.25% (v/v) NIS): 43%; Phytotoxicity Rating (% Crop Injury) [4]: 3.33%; Phytotoxicity Rating (% Crop Injury) [5]: 6.67%; Phytotoxicity Rating (% Crop Injury) [6, 10]: 3.33%; crop injury ([7]; 75 g ai of imazamox per hectare): 100%; Mean Herbicide Damage Score [8, 11]: 45.30%; Mean Herbicide Damage Score [8, 12]: 27.95%; Mean Herbicide Damage Score [8, 13]: 45.50%; Mean Herbicide Damage Score [8, 14]: 42.35%; Mean Herbicide Damage Score [9, 11]: 30.35%; Mean Herbicide Damage Score [9, 12]: 9.50%; Mean Herbicide Damage Score [9, 13]: 40.31%; Mean Herbicide Damage Score [9, 14]: 20.13%

Question: `CC(C)C1(C)N=C(c2ncccc2C(=O)O)NC1=O` (stereo not drawn) [imazapyr] was tested. Which “Phytotoxicity Rating (% Crop Injury)” value ([1]; 80 g ai/ha imazapyr + 0.25% (v/v) NIS) did it give?
Answer: 88.33%

Question: What about the “Phytotoxicity Rating (% Crop Injury)” value [2, 15] of the same compound?
Answer: 6.67%

Question: And the “Phytotoxicity Rating (% Crop Injury)” value [6, 15]?
Answer: 3.33%

Question: What about the crop injury ([7]; 100 g ai of imazapyr per hectare) of the same compound?
Answer: 100%

Question: For `CCOC(=O)CC(SP(=S)(OC)OC)C(=O)OCC` (stereo not drawn) [malathion, diethyl-dimethoxythiophosphorylthio-succinate], which “Mean Herbicide Damage Score” value [8, 16] is on record?
Answer: no effect

Question: What about the “Mean Herbicide Damage Score” value [8, 17] of the same compound?
Answer: 0.00%

Question: And the “Mean Herbicide Damage Score” value [9, 16]?
Answer: no effect

Question: What about the “Mean Herbicide Damage Score” value [9, 17] of the same compound?
Answer: 0.00%
